Tests used:
Format in all cases: cell-based, human
DcR2 = test: Senescence assay: Western blot for DcR2 in RL95-2 cells; conditions: RL95-2 cell lysates
Description: We next analyzed cell lysates taken from RL95-2 cells that expressed either empty vector (Control), overexpressed PME-1 (+PME-1) or expressed shRNA against PME-1 (−PME-1) for DcR2 protein.
(§1) 15 μg of protein was used for western analysis. PME-1 antibody (Santa Cruz) and COXIV (Cell Signaling Technologies) were used for detection of proteins and the blots were developed using chemiluminescence (Pierce ECL Western Blotting Substrate—Thermo Scientific) on the GE ImageQuant LAS 4000. For analysis of Akt, ERK, and β-catenin signaling in tissue culture, western analyses were completed as follows. RL95-2 cells stably infected with lentivirus expressing constructs were selected with puromycin (Invivogen). The cells were incubated with either 50 μM Akt inhibitor (LY 294002, Cell Signaling Technologies) or 40 μM ERK inhibitor (V0126, Cell Signaling Technologies) for 1-2 hours at 37° C. 1.5× Laemelli buffer (0.5 M Tris pH6.8, […], 10% sodium dodecyl sulfate, 100 mM EDTA) was used to prepare cell lysates. 20 μg of protein was used for western analysis. Primary antibodies used were: P-Akt (Ser473), P-Akt (Thr308), pan-Akt, P-ERK (Thr202/204), total ERK (Cell Signaling Technologies), PME-1 (Santa Cruz), phospho-β-catenin (Ser45, Cell Signaling Technologies), phospho-β-catenin (Ser33/37/Thr41, Cell Signaling Technologies), β-catenin (Abcam), DcR2 (Abcam), and GAPDH (Abcam). […]

Akt = test: Western analysis of phospho-Akt in RL95-2 cells; conditions: RL95-2, PME-1 knocked down
Description: We observed a similar trend for the Akt signaling pathway. There was an increase in phosphorylation of Akt on threonine 308 (T308) when PME-1 was over-expressed compared to control. […] PME-1 over-expression specifically increases the phosphorylation of Akt on T308, but not serine 473 (S473).
as §1, with “analysis.” for “analysis. Primary antibodies used were: P-Akt (Ser473), P-Akt (Thr308), pan-Akt, P-ERK (Thr202/204), total ERK (Cell Signaling Technologies), PME-1 (Santa Cruz), phospho-β-catenin (Ser45, Cell Signaling Technologies), phospho-β-catenin (Ser33/37/Thr41, Cell Signaling Technologies), β-catenin (Abcam), DcR2 (Abcam), and GAPDH (Abcam).”

RL95-2 cells [1] = test: BrDU incorporation assay, RL95-2 cells; conditions: RL95-2, compared to scrambled shRNA control set to 100%
Description: To confirm our foci formation data that altering PME-1 levels in endometrial cancer cells affect their rate of cell proliferation, we conducted a BrDU incorporation assay. BrDU is incorporated into newly synthesized DNA and can be detected with antibodies; thus, increased BrDU incorporation correlates with an increased level of proliferation.
The BrDU Incorporation assay was completed with RL95-2 cell lines in media supplemented with 2.5 μg/ml puromycin. Cells were plated at 0.5×10^4 cells per well into a 96 well dish with 0% FBS and allowed to settle for 24 hours. The assay was completed as per kit instructions (Roche, Cell Proliferation ELISA, BrdU colorimetric cat. #11647229001). Briefly, 10 uM BrdU was added to the cells, 24 hours later cells were fixed and denatured with FixDenat from the kit and allowed to incubate with anti-BrdU antibody for up to two hours. Following the incubation and addition of the kit substrate, absorbances were read using FluoStar Galaxy.

PP2A = PP2A phosphatase assay on RL95-2 whole cell lysates; conditions: RL95-2 cells, vs control (non-targeting)
Source text: Because PME-1 is a known inhibitor of PP2A, we confirmed in this study that depletion of PME-1 by siRNA led to an increase in PP2A activity in cells. To do so, we treated RL95-2 cells with either non-targeting siRNA (Control) or siRNA targeted against PPME1 (e.g., SEQ ID NO: 5 and SEQ ID NO: 6). PP2A activity was monitored using a phosphatase assay (R&D Systems Duo IC Set phosphatase assay kit). In the phosphatase assay, we used […] of whole cell extract and followed the manufacturer's recommendations.
Whole cell lysates were used with the DuoSet IC PP2A Phosphatase Assay Kit (R&D Systems). Procedure was carried out as per kit instructions with 500 μg protein and the absorbance was measured at 620 nm. The assay was repeated twice with similar results.

PME-1 = test: Western blot of PME-1 protein in RL95-2 cells; conditions: GAPDH loading control
Description: We prepared RL95-2 cell lines expressing empty vector (control), over-expressing PME-1 (+PME-1), or expressing shRNA against PPME1, the gene that codes for PME-1 protein (−PME-1). Using these cells, we confirmed the appropriate level of PME-1 via real-time RT-PCR (data not shown) and Western blot analysis (FIG. 8). GAPDH was used as a loading control.
We also prepared two different shRNAs targeted against PME-1.
as §1, with “analysis.” for “analysis. Primary antibodies used were: P-Akt (Ser473), P-Akt (Thr308), pan-Akt, P-ERK (Thr202/204), total ERK (Cell Signaling Technologies), PME-1 (Santa Cruz), phospho-β-catenin (Ser45, Cell Signaling Technologies), phospho-β-catenin (Ser33/37/Thr41, Cell Signaling Technologies), β-catenin (Abcam), DcR2 (Abcam), and GAPDH (Abcam).”

RL95-2 cells [2] = test: Colony forming / invasive growth assay in Matrigel
Description: To determine if PME-1 contributes to the more invasive and metastatic phenotypes, we performed a colony forming assay in matrigel.
The 3D On Top Matrigel Assay was completed in 24 well dishes. Briefly, the bottoms of 24 well dishes were coated with 50 μl BD Matrigel Basement Matrix Phenol Red Free (BD Biosciences cat. #356237) and allowed to solidify at 37° C. 10^5 cells were suspended in 250 μl chilled medium containing either 10 ng/ml of TGF-b or vehicle and allowed to settle at 37° C. for 30 minutes. Chilled medium containing 10% of Matrigel was added by pipetting gently down the sidewall of the well and incubated at 37° C. for ten days changing top medium every second day. Colony counts were performed on the tenth day; averages were taken from three fields of view using a 10× objective. Experiment was repeated three times.

β-catenin = test: Western analysis of β-catenin in RL95-2 cells
Source text: We performed Western blot analysis in RL95-2 cells that were expressing empty vector (Control), over-expressing PME-1 (+PME-1) or expressing shRNA against PME-1 (−PME-1) (SEQ ID NO: 2) to examine the protein stability of β-catenin (FIG. 19A). We observed a decrease in total β-catenin protein in cells that were over-expressing PME-1. This observation is correlated with the predicted ubiquitylation of β-catenin and its degradation.
In another series of study, we performed a similar assay in which cells were treated with 10 μM MG-132 prior to protein extraction. MG-132 is a proteasome inhibitor and therefore allows for the accumulation of phosphorylated β-catenin, which is normally quickly degraded, to be detected by western analysis.
15 μg of protein was used for western analysis. PME-1 antibody (Santa Cruz) and COXIV (Cell Signaling Technologies) were used for detection of proteins and the blots were developed using chemiluminescence (Pierce ECL Western Blotting Substrate—Thermo Scientific) on the GE ImageQuant LAS 4000. For analysis of Akt, ERK, and β-catenin signaling in tissue culture, western analyses were completed as follows. RL95-2 cells stably infected with lentivirus expressing constructs were selected with puromycin (Invivogen). […]

ERK = test: Western analysis of phospho-ERK in RL95-2 cells; conditions: RL95-2, compared to control cells
Description: 15 μg of protein was used for western analysis. PME-1 antibody (Santa Cruz) and COXIV (Cell Signaling Technologies) were used for detection of proteins and the blots were developed using chemiluminescence (Pierce ECL Western Blotting Substrate—Thermo Scientific) on the GE ImageQuant LAS 4000. For analysis of Akt, ERK, and β-catenin signaling in tissue culture, western analyses were completed as follows. RL95-2 cells stably infected with lentivirus expressing constructs were selected with puromycin (Invivogen). The cells were incubated with either 50 μM Akt inhibitor (LY 294002, Cell Signaling Technologies) or 40 μM ERK inhibitor (V0126, Cell Signaling Technologies) for 1-2 hours at 37° C. 1.5× Laemelli buffer (0.5 M Tris pH6.8, […], 10% sodium dodecyl sulfate, 100 mM EDTA) was used to prepare cell lysates. 20 μg of protein was used for western analysis. Primary antibodies used were: P-Akt (Ser473), P-Akt (Thr308), pan-Akt, P-ERK (Thr202/204), total ERK (Cell Signaling Technologies), PME-1 (Santa Cruz), phospho-β-catenin (Ser45, Cell Signaling Technologies), phospho-β-catenin (Ser33/37/Thr41, Cell Signaling Technologies), β-catenin (Abcam), DcR2 (Abcam), and GAPDH (Abcam). All experiments were repeated several times with similar results.

Substance: shRNA (SEQ ID NO: 2): lentiviral shRNA against PPME1, target sequence SEQ ID NO: 2 GCAGCGATTATTAGTAGAGTT, bp 289-309; hairpin SEQ ID NO: 8 (CCGGGCAGCGATTATTAGTAGAGTTCTCGAGAACTCTACTAATAATCGCTGCTTTTT; listed as Homo sapiens)
- senescent marker protein DcR2 (Western) (DcR2): increase in the senescent marker protein, DcR2
- phosphorylation of Akt (Western) (Akt): decrease in phosphorylation of Akt
- decrease in BrDU incorporation (RL95-2 cells [1]): 40%
- increase in PP2A phosphatase activity (PP2A): 30 fold
- PME-1 levels by Western blot analysis (PME-1): significantly decreased PME-1 levels
- colony number and size in Matrigel (RL95-2 cells [2]; RL95-2, −TGF-β, compared to control cells): fewer and smaller colonies
- decrease in colony formation (RL95-2 cells [2]; RL95-2 in Matrigel, 10 days, vs control cells): 50%
- total β-catenin protein (Western) (β-catenin; RL95-2, absence of MG-132): stabilization of total β-catenin
- phosphorylated β-catenin (Western) (β-catenin; RL95-2, treated with 10 μM MG-132, compared to control cells): did not lead to an increase in phosphorylated β-catenin
- phospho-ERK (Western) (ERK): decrease in phospho-ERK

— patent US9663789B2, “PME-1 as a biomarker to predict and diagnose endometrial and breast cancer and gene silencing of PME-1 to inhibit epithelial to mesenchymal transition” (MEDICAL DIAGNOSTIC LABORATORIES, LLC, priority 2013, dated 2017)
